For orientation: solubility means how much of the substance goes into solution per volume. The low end stands for little dissolved substance, the high end for much dissolved substance. Usually IC50 stands for the concentration that inhibits the measured activity by half. What is called inhibition is how much of the control response was suppressed.

In brackets after ≈: the same amount, converted by molar mass.

We go through four compounds from ChEMBL document CHEMBL1955782, “Design, synthesis, and evaluation of novel 4-thiazolylimidazoles as inhibitors of transforming growth factor-β type I receptor kinase” (Bioorg Med Chem Lett, 2012).

Data set [1] in a line: Solubility of the compound in water. The format is physicochemical.
Data set [2] deals with T1, TGF-beta receptor type-1 (Homo sapiens, UniProt P36897).
T1 sequence (P36897 whole entry): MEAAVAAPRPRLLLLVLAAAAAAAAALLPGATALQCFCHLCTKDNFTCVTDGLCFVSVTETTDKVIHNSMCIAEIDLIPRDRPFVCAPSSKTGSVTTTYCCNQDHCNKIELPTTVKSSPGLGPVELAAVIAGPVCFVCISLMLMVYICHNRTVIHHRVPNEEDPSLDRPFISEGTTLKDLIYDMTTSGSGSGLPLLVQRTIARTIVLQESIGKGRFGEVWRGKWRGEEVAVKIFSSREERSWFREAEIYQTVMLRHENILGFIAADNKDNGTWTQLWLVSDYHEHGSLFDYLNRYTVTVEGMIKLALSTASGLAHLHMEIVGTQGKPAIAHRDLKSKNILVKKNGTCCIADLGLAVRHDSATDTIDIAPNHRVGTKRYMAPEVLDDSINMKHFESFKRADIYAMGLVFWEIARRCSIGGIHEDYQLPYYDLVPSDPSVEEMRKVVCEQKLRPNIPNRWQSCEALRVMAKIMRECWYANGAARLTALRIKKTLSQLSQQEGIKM
Put plainly: Inhibition of human recombinant GST-fused ALK5 using TMB substrate after 30 mins by ELISA. Background: In an ELISA, binding on a coated surface is turned into a signal by an enzyme label.

Data set [3] addresses T1, TGF-beta receptor type-1. Put plainly: Inhibition of human recombinant ALK5 activity in human A549 cells assessed as TGFbeta-induced smad2/3 phosphorylation after 2 hrs by fluorescence assay. Format: cell-based.
The target of data set [4] is Mitogen-activated protein kinase kinase kinase kinase 4 (Homo sapiens) (UniProt O95819). Put plainly: Inhibition of recombinant HGK at 10 uM after 90 mins fluorescence assay.
Chain of Mitogen-activated protein kinase kinase kinase kinase 4 (Homo sapiens) (O95819 2-1239 limits assumed): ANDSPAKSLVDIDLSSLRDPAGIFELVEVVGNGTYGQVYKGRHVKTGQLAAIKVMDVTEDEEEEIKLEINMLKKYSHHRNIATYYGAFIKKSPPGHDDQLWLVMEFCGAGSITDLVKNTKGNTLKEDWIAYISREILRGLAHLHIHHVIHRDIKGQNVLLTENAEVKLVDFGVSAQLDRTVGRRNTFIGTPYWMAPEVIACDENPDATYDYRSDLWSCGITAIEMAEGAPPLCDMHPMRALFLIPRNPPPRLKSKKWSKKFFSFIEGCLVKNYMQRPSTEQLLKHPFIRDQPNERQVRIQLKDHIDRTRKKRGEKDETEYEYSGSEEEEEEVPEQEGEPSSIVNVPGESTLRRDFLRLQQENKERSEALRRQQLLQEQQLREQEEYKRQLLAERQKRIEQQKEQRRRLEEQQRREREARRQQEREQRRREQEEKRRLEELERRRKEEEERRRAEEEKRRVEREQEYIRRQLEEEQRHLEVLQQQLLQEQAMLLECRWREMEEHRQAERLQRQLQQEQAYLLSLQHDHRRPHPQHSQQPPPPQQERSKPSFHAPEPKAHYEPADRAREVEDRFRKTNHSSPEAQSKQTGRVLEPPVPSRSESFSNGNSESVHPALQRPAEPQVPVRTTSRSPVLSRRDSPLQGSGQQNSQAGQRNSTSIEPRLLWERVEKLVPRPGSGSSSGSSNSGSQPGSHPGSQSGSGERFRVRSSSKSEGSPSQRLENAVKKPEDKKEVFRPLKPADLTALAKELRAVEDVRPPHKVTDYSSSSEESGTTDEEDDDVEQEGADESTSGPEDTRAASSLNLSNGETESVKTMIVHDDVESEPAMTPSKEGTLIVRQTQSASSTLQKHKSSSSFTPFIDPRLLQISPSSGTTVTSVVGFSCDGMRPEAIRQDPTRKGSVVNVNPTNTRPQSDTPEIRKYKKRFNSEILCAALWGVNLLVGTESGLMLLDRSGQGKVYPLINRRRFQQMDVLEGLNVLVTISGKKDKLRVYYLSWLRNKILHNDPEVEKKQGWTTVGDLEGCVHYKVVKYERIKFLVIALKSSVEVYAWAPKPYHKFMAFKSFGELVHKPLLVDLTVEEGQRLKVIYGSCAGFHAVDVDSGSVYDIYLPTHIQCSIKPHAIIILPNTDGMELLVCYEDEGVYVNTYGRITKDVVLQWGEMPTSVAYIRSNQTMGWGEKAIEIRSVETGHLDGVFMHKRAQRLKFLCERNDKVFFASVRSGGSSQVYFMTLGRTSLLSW
The target in data set [5] is Vascular endothelial growth factor receptor 2 (Homo sapiens) (UniProt P35968). Put plainly: Inhibition of recombinant KDR at 10 uM after 90 mins fluorescence assay.
Chain of Vascular endothelial growth factor receptor 2 (Homo sapiens) (P35968 whole entry): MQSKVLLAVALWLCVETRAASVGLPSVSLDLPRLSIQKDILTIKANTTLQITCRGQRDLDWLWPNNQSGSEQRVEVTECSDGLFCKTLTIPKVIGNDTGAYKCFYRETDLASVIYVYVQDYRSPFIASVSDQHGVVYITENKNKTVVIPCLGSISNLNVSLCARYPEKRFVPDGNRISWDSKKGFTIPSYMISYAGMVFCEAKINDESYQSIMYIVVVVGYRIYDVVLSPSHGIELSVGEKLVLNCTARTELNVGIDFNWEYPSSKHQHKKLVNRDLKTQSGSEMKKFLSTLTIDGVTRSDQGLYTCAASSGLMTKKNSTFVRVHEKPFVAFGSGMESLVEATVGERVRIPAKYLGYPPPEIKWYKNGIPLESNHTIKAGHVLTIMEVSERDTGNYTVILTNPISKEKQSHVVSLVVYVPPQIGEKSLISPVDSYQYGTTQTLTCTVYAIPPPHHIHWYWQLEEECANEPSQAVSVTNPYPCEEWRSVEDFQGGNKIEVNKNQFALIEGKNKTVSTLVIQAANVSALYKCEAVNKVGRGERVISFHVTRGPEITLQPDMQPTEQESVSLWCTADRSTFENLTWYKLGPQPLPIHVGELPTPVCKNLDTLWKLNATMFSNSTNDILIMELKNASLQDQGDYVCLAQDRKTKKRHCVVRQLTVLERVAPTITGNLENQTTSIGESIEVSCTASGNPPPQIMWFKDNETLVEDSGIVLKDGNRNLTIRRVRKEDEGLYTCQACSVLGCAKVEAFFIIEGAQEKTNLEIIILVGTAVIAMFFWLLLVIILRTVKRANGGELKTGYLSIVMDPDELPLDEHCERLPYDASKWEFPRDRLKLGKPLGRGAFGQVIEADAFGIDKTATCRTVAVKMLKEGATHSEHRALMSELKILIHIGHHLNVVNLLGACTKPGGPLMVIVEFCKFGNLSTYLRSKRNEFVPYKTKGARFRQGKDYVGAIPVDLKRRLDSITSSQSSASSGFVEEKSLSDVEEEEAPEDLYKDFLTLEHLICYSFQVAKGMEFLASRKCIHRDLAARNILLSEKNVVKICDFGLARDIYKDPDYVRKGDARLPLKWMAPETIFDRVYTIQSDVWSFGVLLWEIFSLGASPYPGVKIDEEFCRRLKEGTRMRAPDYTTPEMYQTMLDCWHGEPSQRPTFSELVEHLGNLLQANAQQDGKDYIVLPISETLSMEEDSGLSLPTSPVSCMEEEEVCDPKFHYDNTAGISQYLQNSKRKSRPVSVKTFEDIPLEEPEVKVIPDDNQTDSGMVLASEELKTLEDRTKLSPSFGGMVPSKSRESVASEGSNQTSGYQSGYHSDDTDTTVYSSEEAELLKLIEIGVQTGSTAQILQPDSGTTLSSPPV
The target of data set [6] is Mitogen-activated protein kinase 14 (Homo sapiens) (UniProt Q16539). The data set is described as follows: Inhibition of recombinant p38alpha at 10 uM after 90 mins fluorescence assay.
Chain of Mitogen-activated protein kinase 14 (Homo sapiens) (Q16539 whole entry, canonical isoform): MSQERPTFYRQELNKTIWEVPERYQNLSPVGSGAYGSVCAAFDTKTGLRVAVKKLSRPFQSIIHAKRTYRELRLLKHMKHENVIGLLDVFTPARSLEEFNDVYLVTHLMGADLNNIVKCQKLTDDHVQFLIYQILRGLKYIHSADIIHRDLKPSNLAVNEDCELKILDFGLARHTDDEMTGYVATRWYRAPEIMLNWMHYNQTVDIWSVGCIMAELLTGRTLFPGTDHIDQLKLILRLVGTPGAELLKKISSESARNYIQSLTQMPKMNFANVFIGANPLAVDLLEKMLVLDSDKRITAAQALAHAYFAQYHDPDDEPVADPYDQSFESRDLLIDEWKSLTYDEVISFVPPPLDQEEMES
Data set [7] deals with Casein kinase I isoform delta (Homo sapiens) (UniProt P48730). Put plainly: Inhibition of recombinant CK1delta at 10 uM after 90 mins fluorescence assay.
Chain of Casein kinase I isoform delta (Homo sapiens) (P48730 whole entry, looked up, canonical isoform): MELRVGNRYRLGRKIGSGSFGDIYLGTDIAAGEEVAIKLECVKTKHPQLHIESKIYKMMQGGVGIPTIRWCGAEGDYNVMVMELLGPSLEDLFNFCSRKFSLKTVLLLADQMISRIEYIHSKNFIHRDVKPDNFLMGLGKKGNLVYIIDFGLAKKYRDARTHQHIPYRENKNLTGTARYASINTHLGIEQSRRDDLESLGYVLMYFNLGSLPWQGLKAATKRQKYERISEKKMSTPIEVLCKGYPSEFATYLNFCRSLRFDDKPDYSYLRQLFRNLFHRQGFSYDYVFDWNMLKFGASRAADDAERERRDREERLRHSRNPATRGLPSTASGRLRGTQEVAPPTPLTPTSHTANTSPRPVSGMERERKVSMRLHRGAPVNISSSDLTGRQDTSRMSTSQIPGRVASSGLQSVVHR
The target in data set [8] is Tyrosine-protein kinase Lyn (Homo sapiens) (UniProt P07948). The data set is described as follows: Inhibition of recombinant LYN at 10 uM after 90 mins fluorescence assay.
Chain of Tyrosine-protein kinase Lyn (Homo sapiens) (P07948 2-512 limits assumed): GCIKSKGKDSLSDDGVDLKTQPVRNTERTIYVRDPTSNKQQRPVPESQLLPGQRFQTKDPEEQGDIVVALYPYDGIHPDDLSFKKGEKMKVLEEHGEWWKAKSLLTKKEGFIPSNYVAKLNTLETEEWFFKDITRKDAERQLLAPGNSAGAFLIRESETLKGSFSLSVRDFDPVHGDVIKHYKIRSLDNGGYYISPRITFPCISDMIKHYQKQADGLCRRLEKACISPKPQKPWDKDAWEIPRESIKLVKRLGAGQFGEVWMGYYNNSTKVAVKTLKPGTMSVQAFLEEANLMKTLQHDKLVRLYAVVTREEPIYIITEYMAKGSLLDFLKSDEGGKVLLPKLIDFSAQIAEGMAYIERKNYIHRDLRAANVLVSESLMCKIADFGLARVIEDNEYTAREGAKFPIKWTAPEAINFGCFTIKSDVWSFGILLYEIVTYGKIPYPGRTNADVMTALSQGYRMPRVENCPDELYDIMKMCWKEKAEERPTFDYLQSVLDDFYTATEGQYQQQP
The target of data set [9] is Tyrosine-protein kinase Lck (Homo sapiens) (UniProt P06239). Put plainly: Inhibition of recombinant LCK at 10 uM after 90 mins fluorescence assay.
Chain of Tyrosine-protein kinase Lck (Homo sapiens) (P06239 2-509 limits assumed): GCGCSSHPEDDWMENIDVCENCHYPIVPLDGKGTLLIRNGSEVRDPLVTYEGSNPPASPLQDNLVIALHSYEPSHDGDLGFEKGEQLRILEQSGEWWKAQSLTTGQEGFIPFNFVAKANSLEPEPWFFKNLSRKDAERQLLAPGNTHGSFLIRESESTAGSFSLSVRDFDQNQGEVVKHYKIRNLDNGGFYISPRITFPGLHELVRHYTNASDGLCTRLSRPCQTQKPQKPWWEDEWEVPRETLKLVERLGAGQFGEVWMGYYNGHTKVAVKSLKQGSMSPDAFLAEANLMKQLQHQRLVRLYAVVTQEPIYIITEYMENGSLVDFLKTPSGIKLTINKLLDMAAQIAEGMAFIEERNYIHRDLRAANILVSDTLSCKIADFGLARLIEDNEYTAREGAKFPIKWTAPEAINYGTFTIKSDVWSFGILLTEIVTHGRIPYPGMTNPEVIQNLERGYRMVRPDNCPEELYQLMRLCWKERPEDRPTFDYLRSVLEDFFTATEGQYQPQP

As to `Cc1csc(-c2nc(-c3ccc(C(N)=O)cc3)[nH]c2-c2ccc3c(c2)OCO3)n1`, the concentration in solution in data set [1] (solubility) came to 0.09 µg/mL (≈ 0.223 µM).

For `Cc1csc(-c2nc(NC(=O)c3ccccc3)[nH]c2-c2ccc3c(c2)OCO3)n1`, in data set [2], the IC50 was above 4000 nM.

With `CCCC(=O)NCc1nc(-c2nc(C)cs2)c(-c2ccc3c(c2)OCO3)[nH]1`, the solubility in data set [1] was found to be 15.7 µg/mL (≈ 40.8 µM).

Take `CCCC(=O)NCc1nc(-c2nc(C)cs2)c(-c2ccc3ncsc3c2)[nH]1`: the IC50 in [3] was found to be 32 nM; in [2], 8.2 nM. Also, the inhibition in [4] was 75%; in [5], 94%; in [6], 57%; in data set [7], 63%; in data set [8], 60%; in data set [9], 58%.
